The source of these data is paper PMC10626537, “Pharmacokinetic and pharmacodynamic studies of nicotine in rat brain: a simultaneous investigation of nicotine metabolites and the release of neurotransmitters in vivo” (Frontiers in Chemistry, 2023).

Series [1] in a line: Online brain microdialysis UHPLC-HRMS/MS pharmacokinetics of Nic and its main metabolites in rat NAc after single Nic injection. Type of series: in vivo. On the set-up: AUC0–360 min: unit not given here. As to conditions: for Cmax / MRT / Tmax / half-life: rat, brain microdialysate (NAc), ip; for half-life: read-out: t 1/2z. As for the experimental part: (§1) To inhibit the main Nic metabolic enzyme CYP2B in the brain, rats received intraperitoneal injections of proadifen (50 mg kg^−1·day^−1, 4 d) ([Song et al., 2012]). Control animals were pretreated with saline using the same protocol. All the rats were sacrificed by cardiac perfusion after microdialysis sampling. The brain tissues were separated and divided into four parts (cerebrum, cerebellum, diencephalon, and brainstem). The CYP2B activity in different rat brain regions was determined following the instructions of the GENMED CYP2B1 activity fluorescence quantitative detection kit (GENMED SCIENTIFICS INC. U.S.A, GMS18019.1).
(§2) The mass spectrometer was operated in positive ionization mode. […] The normalized collision energy was set at 10%.

The subject of series [2] is release of neurotransmitters in the NAc. Briefly: Microdialysis release of neurotransmitters in rat NAc after Nic exposure under regulation of Nic metabolism. The class given is in vivo. As to conditions: for peak concentration of DOPAC / peak concentration of HVA: after Nic stimulation (2 mg kg^-1 ip). As for the experimental part: as §1, §2
The subject of series [3] is monoamine neurotransmitters in rat striatum. The note with it: rat striatum dialysate; after 3 h of Nic exposure (2 mg kg^-1 ip).
Text: Anesthesia was induced with 3% isoflurane in an induction chamber before surgical procedures and was placed in a stereotaxic frame equipped with a rat ear and bite bar. Rat was maintained under anesthesia with 1%–2% isoflurane during operation procedures. And the cranium above the ventral striatum (coordinates relative to bregma: anterior/posterior (AP), +1.2 mm; medial/lateral (ML), −2.4 mm; dorsal/ventral (DV), −6.0 mm) or NAc (coordinates relative to bregma: anterior/posterior (AP), +1.7 mm; medial/lateral (ML), −1.5 mm; dorsal/ventral (DV), −6.5 mm) was exposed to implant the probe guide-cannula (CMA/12), two screws were implanted into the skull to serve as an anchor and dental cement was used as an adhesive to fixed the probe guide-cannula. To avoid the interference of neurotransmitter changes due to physical stimulation of pain receptors during intraperitoneal injection of Nic, Nic was injected with the aid of an administration catheter (Instech, BTPU-040, 6.35 × 10.16 mm, America), which was implanted in the abdomen, the other end of the catheter was passed under the skin and sent to the back and sealed with a plug (Instech, PNP3M-F22R, America). The rats were housed individually and allowed to recover from surgery for at least 24 h.
For in vivo microdialysis sampling, the probe (CMA/12 Elite, membrane parameters: polyarylethersulfone material; 2 mm length; φ 0.5 mm; 20 kDa cut-off) was inserted into the brain through the cannula. After implantation, the probe was perfused with Ringer’s solution by the syringe pump (CMA/402, piston propulsion speed: 2.4 μm·min^-1–1.2 mm min^-1; velocity range: 0.1 μL·min^-1–20 μL min^-1; precision: −1.5%-1.5%) at fixed flow rates (1.5 μL min^-1), and the dialysates were analyzed under the optimized UHPLC-HRMS/MS condition directly. Intraperitoneal administration of 2 mg kg^-1 Nic was performed until stable levels of neurotransmitters were obtained, which was defined as the mean value of neurotransmitter concentrations in six consecutive samples varied by no more than 10%.
UHPLC-HRMS/MS system was performed on Dionex Ultimate 3000 UHPLC equipped with a Q-Exactive mass spectrometer and electrospray ionization (ESI) interface (Thermo Fisher Scientific, Germany). Chromatographic separation was achieved by the pentafluorophenyl phase column (Discovery® HS F5-3 column, 2.1 × 150 mm, 3 μm) with linear binary gradient elution, at a flow rate of 0.5 mL min^-1. Eluent A was 10 mM ammonium acetate with FA (0.1%, v/v) dissolved in water, and eluent B was acetonitrile with 0.1% FA (v/v). […] From 3 to 6 min, a linear gradient was applied from 45% to 75% B and then return linearly to the initial condition at 9 min and the column was allowed to equilibrate for 1 min.
The mass spectrometer was operated in positive ionization mode. The optimized mass spectrometer parameters were as follows: a resolution of 35000; automatic gain control (AGC) target was 2.0 e^5; maximum injection time (IT) was 100 m; 3.5 kV for spray voltage; ion transfer tube temperature, 350°C; S-Lens RF level, 60%. The isolation window of the precursor ions was done using a quadrupole with an isolation window of m/z 1. The normalized collision energy was set at 10%. Analytes were determined by a parallel reaction monitoring (PRM) method by acquiring two transitions for each compound. The most specific transition was selected for the quantitative purpose. All data were gathered and analyzed using Xcalibur 2.2 software (Thermo Fisher Scientific, Germany). […]
A further series deals with T1, CYP2B1 (Rattus norvegicus, UniProt P00176).
T1 construct: The brain tissues were separated and divided into four parts (cerebrum, cerebellum, diencephalon, and brainstem); from tissue; host or cells: brain tissue (cerebrum, cerebellum, diencephalon, brainstem) of male Sprague Dawley rats
T1 sequence (P00176 1-491): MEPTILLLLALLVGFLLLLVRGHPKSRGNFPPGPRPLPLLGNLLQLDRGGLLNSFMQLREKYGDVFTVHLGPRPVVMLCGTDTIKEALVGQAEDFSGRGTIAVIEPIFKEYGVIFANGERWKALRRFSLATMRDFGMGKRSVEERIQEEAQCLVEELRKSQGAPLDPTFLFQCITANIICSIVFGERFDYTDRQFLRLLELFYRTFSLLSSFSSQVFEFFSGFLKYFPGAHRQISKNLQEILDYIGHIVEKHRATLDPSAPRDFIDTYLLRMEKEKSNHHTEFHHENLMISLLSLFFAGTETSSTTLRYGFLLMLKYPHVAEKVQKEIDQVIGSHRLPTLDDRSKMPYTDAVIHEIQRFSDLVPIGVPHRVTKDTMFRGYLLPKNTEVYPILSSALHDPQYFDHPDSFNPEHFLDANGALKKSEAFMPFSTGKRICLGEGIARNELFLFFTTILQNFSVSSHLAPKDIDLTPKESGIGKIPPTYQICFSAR
The experiment in a line: CYP2B1 activity in rat brain tissue after proadifen pretreatment (GENMED CYP2B1 activity fluorescence quantitative detection kit). Type of series: in vivo. As to conditions: 4 days. As for the experimental part:
as §1

Setting [4] is: rat NAc, Nic 2 mg kg^-1 ip, Prodifine (proadifen) pretreated.
Where [5] appears, read: rat NAc, Nic 2 mg kg^-1 ip, saline-pretreated.
The mark [6] stands for this setting: 2 mg/kg, rat NAc, Nic 2 mg kg^-1 ip, Prodifine (proadifen) pretreated.
Setting [7] is: 2 mg/kg, rat NAc, Nic 2 mg kg^-1 ip, saline-pretreated.
Setting [8] is: after Nic exposure, proadifen pretreatment group.
The mark [9] stands for this setting: Nic 2 mg kg^-1 ip, proadifen vs saline pretreatment.

Like-named read-outs stand apart in the source and are kept apart here. Bounds are passed on as bounds.

The CL/F is clearance divided by bioavailability, as obtained after extravascular dosing. Broadly, the Cmax is the highest concentration seen after dosing. A word on the MRT: it is a mean duration of stay, worked out from the concentration-time curve. The term Tmax denotes the time from dosing to the highest level. Regarding `CN1CCC[C@H]1c1cccnc1` [Nic, (−) nicotine], in series [1] (Nic 2 mg kg^-1 ip), the “time by which Nic was almost completely cleared from the rat brain” value is at most 360 min. The CL/F in series [1] (setting [4]) amounted to 14.0 mL/min. Also, the CL/F in series [1] (setting [5]) was 25.0 mL/min. Besides, in series [1] (rat brain, Nic 2 mg kg^-1 ip, proadifen-pretreated vs saline), the “brain C max of Nic in proadifen group relative to saline group” value was determined as 1.26 times. In series [1] (2 mg kg^-1, rat NAc, Nic 2 mg kg^-1 ip, Prodifine (proadifen) pretreated), the Cmax is 1220 ng/mL. For the same molecule, in series [1] (setting [6]), the Cmax was 1220 ng/mL, the MRT is 1.89 h, the Tmax was 0.5 h and the half-life amounted to 1.28 h. Also, in series [1] (setting [7]), the Cmax came to 968 ng/mL, the MRT is 1.43 h, the time of peak concentration (Tmax) is 0.5 h and the half-life turned out to be 2.15 h. In series [2] (setting [8]), the “C max of 5-HIAA” value is ~240 % of baseline and the “C max of 5-HT” value is reported as ~390 % of baseline. For the same molecule, the “peak level of Ach relative to baseline” value in series [2] (after Nic injection) is on record as “almost doubled”. In series [2] (proadifen pretreated group), the “peak concentration of DOPAC” value is given as ~340 % of the baseline and the “peak concentration of HVA” value was ~330 % of the baseline. In series [2] (saline group), the “peak concentration of DOPAC” value is ~290 % of the baseline and the “peak concentration of HVA” value is recorded as ~270 % of the baseline. Further, in series [3], the “average level of 5-HIAA” value came out at 234.4 µg/L, the “average level of 5-HT” value came to 45.9 µg/L, the “average level of DA” value worked out at 25.1 µg/L and the “average level of DOPAC” value was 99.2 µg/L. The “average level of HVA” value in series [3] turned out to be 169.8 µg/L.

For the molecule `CN1C(=O)CC[C@H]1c1cccnc1` [Cot, (−) cotinine], the apparent clearance CL/F in series [1] (setting [4]) amounted to 7.0 mL/min. The apparent clearance CL/F in series [1] (setting [5]) is 9.0 mL/min. Moreover, in series [1] (setting [6]), the peak concentration (Cmax) amounted to 20.3 ng/mL, the MRT was 3.12 h, the time to peak (Tmax) was 2 h and the half-life is 2.19 h. Moreover, in series [1] (setting [7]), the Cmax came to 16.7 ng/mL, the MRT was 3.11 h, the time of peak concentration (Tmax) was 2.67 h and the half-life is 1.74 h.

`C[N@+]1([O-])CCC[C@H]1c1cccnc1` [NNO, (1′S, 2′S)-nicotine-1′-oxide]: in series [1] (rat NAc dialysate, Nic 2 mg kg^-1 ip single injection, Prodifine (proadifen 50 mg kg^-1 d^-1 ip, 4 days) pretreated, two-compartmental model), the “AUC0–360 min” value was 0.6. Further, the CL/F in series [1] (setting [4]) amounted to 3.2 mL/min. The CL/F in series [1] (setting [5]) was found to be 5.0 mL/min. In series [1] (rat brain, Nic 2 mg kg^-1 ip, proadifen-pretreated vs saline control), the “decrease of C max (level) of Nic metabolite after CYP2B1 inhibition compared with control rats” value was determined as 65.6%. Moreover, in series [1] (setting [6]), the Cmax worked out at 5.2 ng/mL, the MRT is 1.57 h, the time to peak (Tmax) was 0.667 h and the half-life was found to be 0.895 h. In addition, in series [1] (setting [7]), the Cmax was 15.1 ng/mL, the MRT is 2.39 h, the time to peak (Tmax) is 0.5 h and the half-life was found to be 0.802 h.

Turning to `CCCC(C(=O)OCCN(CC)CC)(c1ccccc1)c1ccccc1` [proadifen], the “decrease of whole brain CYP2B1 activity on average” value at CYP2B1 (proadifen 50 mg kg^-1 d^-1 ip, vs saline-pretreated rats) was found to be 36.9%. The “effect on brain CYP2B1 activity” value at CYP2B1 (proadifen 50 mg·kg^−1·d^−1 ip) is on record as “significant inhibition”. Moreover, in series [2] (Nic 2 mg kg^-1 ip), the “effect of proadifen inhibition on Nic-induced peak level of Ach” value is reported as “did not further increased it”. Besides, in series [2] (setting [9]), the “average level of GABA in proadifen group relative to saline group” value was 2.7 times and the “average level of serotonin under inhibition of nicotine metabolism relative to control” value is reported as 1.2 times.
